Assay results as given in ChEMBL document CHEMBL5390317, “Novel Indane-Containing NBTIs with Potent Anti-Gram-Negative Activity and Minimal hERG Inhibition” (ACS Med Chem Lett, 2023).
Converted amounts (≈) assume the structure as drawn.

What was measured:
Pseudomonas aeruginosa [1] = experiment: Antibacterial activity against Pseudomonas aeruginosa NCTC 13437 assessed as inhibition in bacterial growth incubated for 20 to 24 hrs by CLSI based broth microdilution method; assay type: functional; details: Pseudomonas aeruginosa, NCTC 13437, time 20-24 hrs; read-out: MIC
Pseudomonas aeruginosa [2] = experiment: Antibacterial activity against Pseudomonas aeruginosa NCTC 11451 assessed as inhibition in bacterial growth incubated for 20 to 24 hrs by CLSI based broth microdilution method; assay type: functional; details: Pseudomonas aeruginosa, NCTC 11451, time 20-24 hrs; read-out: MIC
Klebsiella pneumoniae [3] = experiment: Antibacterial activity against Klebsiella pneumoniae ATCC 700603 assessed as inhibition in bacterial growth incubated for 20 to 24 hrs by CLSI based broth microdilution method; assay type: functional; details: Klebsiella pneumoniae, ATCC 700603, time 20-24 hrs; read-out: MIC
Escherichia coli [4] = experiment: Antibacterial activity against Escherichia coli ATCC 35218 assessed as inhibition in bacterial growth incubated for 20 to 24 hrs by CLSI based broth microdilution method; assay type: functional; details: Escherichia coli, ATCC 35218, time 20-24 hrs; read-out: MIC
Escherichia coli [5] = experiment: Antibacterial activity against Escherichia coli K-12 BW25113 deltaTolC assessed as inhibition in bacterial growth incubated for 20 to 24 hrs by CLSI based broth microdilution method; assay type: functional; details: time 20-24 hrs
hERG (KCNH2) [6] = molecular target: T1, hERG (KCNH2) (Homo sapiens, UniProt Q12809); experiment: Inhibition of hERG potassium channel expressed in CHO cells at 10 uM by electrophysiological patch clamp assay relative to control; assay type: toxicity, cell-based; details: CHO cells expressing hERG
T1 sequence (Q12809 whole entry): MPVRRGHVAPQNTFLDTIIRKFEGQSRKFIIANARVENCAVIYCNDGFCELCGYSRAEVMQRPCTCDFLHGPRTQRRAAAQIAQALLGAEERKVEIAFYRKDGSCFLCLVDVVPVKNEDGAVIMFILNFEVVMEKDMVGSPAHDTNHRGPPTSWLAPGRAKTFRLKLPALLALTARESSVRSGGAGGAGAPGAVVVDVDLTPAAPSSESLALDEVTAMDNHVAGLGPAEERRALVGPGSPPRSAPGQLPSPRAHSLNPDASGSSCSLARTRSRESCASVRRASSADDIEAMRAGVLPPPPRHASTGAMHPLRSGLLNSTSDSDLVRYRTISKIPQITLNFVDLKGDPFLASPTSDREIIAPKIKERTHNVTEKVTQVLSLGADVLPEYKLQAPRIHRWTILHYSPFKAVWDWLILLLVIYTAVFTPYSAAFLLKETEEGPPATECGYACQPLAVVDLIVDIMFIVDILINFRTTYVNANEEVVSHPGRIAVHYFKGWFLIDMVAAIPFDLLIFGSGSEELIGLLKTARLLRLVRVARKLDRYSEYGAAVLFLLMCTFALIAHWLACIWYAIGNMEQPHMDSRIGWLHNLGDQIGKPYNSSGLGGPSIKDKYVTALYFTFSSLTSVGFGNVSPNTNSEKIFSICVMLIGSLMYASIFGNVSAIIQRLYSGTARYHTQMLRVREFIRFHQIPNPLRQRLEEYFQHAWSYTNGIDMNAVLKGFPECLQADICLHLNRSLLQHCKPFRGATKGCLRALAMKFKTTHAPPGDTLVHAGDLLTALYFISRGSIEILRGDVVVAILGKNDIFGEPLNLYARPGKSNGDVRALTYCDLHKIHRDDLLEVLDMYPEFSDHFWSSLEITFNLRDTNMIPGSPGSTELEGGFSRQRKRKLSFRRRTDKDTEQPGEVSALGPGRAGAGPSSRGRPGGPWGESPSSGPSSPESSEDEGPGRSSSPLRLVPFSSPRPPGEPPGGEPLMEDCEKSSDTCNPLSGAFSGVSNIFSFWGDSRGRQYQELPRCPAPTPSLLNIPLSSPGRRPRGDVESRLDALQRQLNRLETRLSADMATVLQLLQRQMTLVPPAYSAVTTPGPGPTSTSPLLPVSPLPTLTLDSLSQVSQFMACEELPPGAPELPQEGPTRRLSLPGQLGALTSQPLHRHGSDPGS

Klebsiella pneumoniae [7] = experiment: Antibacterial activity against Klebsiella pneumoniae ATCC BAA-1705 assessed as inhibition in bacterial growth incubated for 20 to 24 hrs by CLSI based broth microdilution method; assay type: functional; details: time 20-24 hrs
DNA gyrase = DNA gyrase (Escherichia coli, UniProt P0AES4+P0AES6); experiment: Inhibition of Escherichia coli DNA gyrase incubated for 80 mins by Transcreener ADP2 FI assay; assay type: protein-complex assay
Pseudomonas aeruginosa [8] = experiment: Antibacterial activity against Pseudomonas aeruginosa ATCC 27853 assessed as inhibition in bacterial growth incubated for 20 to 24 hrs by CLSI based broth microdilution method; assay type: functional; details: time 20-24 hrs
Staphylococcus aureus [9] = experiment: Antibacterial activity against Staphylococcus aureus ATCC 29213 assessed as inhibition in bacterial growth incubated for 20 to 24 hrs by CLSI based broth microdilution method; assay type: functional; details: Staphylococcus aureus, ATCC 29213; time 20-24 hrs; read-out: MIC
[10] = Inhibition of Escherichia coli topoisomerase 4 incubated for 120 mins by Transcreener ADP2 FI assay
Acinetobacter baumannii [11] = experiment: Antibacterial activity against Acinetobacter baumannii ATCC BAA-747 assessed as inhibition in bacterial growth incubated for 20 to 24 hrs by CLSI based broth microdilution method; assay type: functional; details: Acinetobacter baumannii, ATCC BAA-747, time 20-24 hrs; read-out: MIC
Klebsiella pneumoniae [12] = experiment: Antibacterial activity against Klebsiella pneumoniae ATCC 10031 assessed as inhibition in bacterial growth incubated for 20 to 24 hrs by CLSI based broth microdilution method; assay type: functional; details: time 20-24 hrs
[13] = Stability in rat plasma; assay type: ADME, cell-free
Acinetobacter baumannii [14] = experiment: Antibacterial activity against Acinetobacter baumannii ATCC 19606 assessed as inhibition in bacterial growth incubated for 20 to 24 hrs by CLSI based broth microdilution method; assay type: functional; details: time 20-24 hrs
[15] = Stability in mouse plasma; assay type: ADME, cell-free
[16] = Stability in human plasma; assay type: ADME, cell-free
[17] = molecular target: Voltage-gated inwardly rectifying potassium channel KCNH2 (Homo sapiens, UniProt Q12809); experiment: (§1) Inhibition of hERG potassium channel expressed in CHO cells by electrophysiological patch clamp assay; assay type: toxicity, cell-based
Chain of Voltage-gated inwardly rectifying potassium channel KCNH2 (Q12809 whole entry): as above

hERG (KCNH2) [18] = molecular target: T1, hERG (KCNH2); experiment: as §1; assay type: toxicity, cell-based; details: human, CHO cells expressing hERG
hERG (KCNH2) [19] = molecular target: T1, hERG (KCNH2); experiment: Inhibition of hERG potassium channel expressed in CHO cells at 1 uM by electrophysiological patch clamp assay relative to control; assay type: toxicity, cell-based; details: CHO cells expressing hERG
[20] = Stability in rat plasma assessed as parent compound remaining after 5 hrs relative to control; assay type: ADME, cell-free; details: read-out: Stability
Staphylococcus aureus [21] = experiment: Antibacterial activity against Staphylococcus aureus ATCC BAA-1556 assessed as inhibition in bacterial growth incubated for 20 to 24 hrs by CLSI based broth microdilution method; assay type: functional; details: Staphylococcus aureus, ATCC BAA-1556, time 20-24 hrs; read-out: MIC
Escherichia coli [22] = experiment: Antibacterial activity against Escherichia coli K-12 BW25113 assessed as inhibition in bacterial growth incubated for 20 to 24 hrs by CLSI based broth microdilution method; assay type: functional; details: Escherichia coli, K-12 BW25113, time 20-24 hrs; read-out: MIC
Escherichia coli [23] = experiment: Antibacterial activity against Escherichia coli ATCC 25922 assessed as inhibition in bacterial growth incubated for 20 to 24 hrs by CLSI based broth microdilution method; assay type: functional; details: time 20-24 hrs
[24] = Stability in human plasma assessed as parent compound remaining after 5 hrs relative to control; assay type: ADME, cell-free; details: read-out: Stability
Klebsiella pneumoniae [25] = experiment: Antibacterial activity against Klebsiella pneumoniae ATCC BAA-2146 assessed as inhibition in bacterial growth incubated for 20 to 24 hrs by CLSI based broth microdilution method; assay type: functional; details: Klebsiella pneumoniae, ATCC BAA-2146, time 20-24 hrs; read-out: MIC
Acinetobacter baumannii [26] = experiment: Antibacterial activity against Acinetobacter baumannii ATCC 51432 assessed as inhibition in bacterial growth incubated for 20 to 24 hrs by CLSI based broth microdilution method; assay type: functional; details: Acinetobacter baumannii, ATCC 51432, time 20-24 hrs; read-out: MIC
Escherichia coli [27] = experiment: Antibacterial activity against Escherichia coli ATCC BAA-2340 assessed as inhibition in bacterial growth incubated for 20 to 24 hrs by CLSI based broth microdilution method; assay type: functional; details: Escherichia coli, ATCC BAA-2340, time 20-24 hrs; read-out: MIC
[28] = Lipophilicity, log D of compound at pH 7.4; assay type: physicochemical; details: buffer
[29] = Stability in mouse plasma assessed as parent compound remaining after 5 hrs relative to control; assay type: ADME, cell-free; details: read-out: Stability

Row | SMILES | MIC (Pseudomonas aeruginosa [1]) | MIC (Pseudomonas aeruginosa [2]) | MIC (Klebsiella pneumoniae [3]) | MIC (Escherichia coli [4]) | MIC (Escherichia coli [5]) | inhibition at 10 µM (hERG (KCNH2) [6]) | MIC (Klebsiella pneumoniae [7]) | IC50 (DNA gyrase) | MIC (Pseudomonas aeruginosa [8]) | MIC (Staphylococcus aureus [9]) | IC50 [10] | MIC (Acinetobacter baumannii [11]) | MIC (Klebsiella pneumoniae [12]) | MIC (Acinetobacter baumannii [14]) | MIC (Staphylococcus aureus [21]) | MIC (Escherichia coli [22]) | MIC (Escherichia coli [23]) | MIC (Klebsiella pneumoniae [25]) | MIC (Acinetobacter baumannii [26]) | MIC (Escherichia coli [27]) | other results
1 | CN(C)CC(=O)Nc1cc(F)c2c(c1)CC(CNCCC1CN(c3cnc4c(n3)NC(=O)CO4)C(=O)O1)C2 (stereo not drawn) | 2 µg/mL (≈ 3.79 µM) | 2 µg/mL (≈ 3.79 µM) | 2 µg/mL (≈ 3.79 µM) | 0.125 µg/mL (≈ 0.237 µM) | ≤ 0.06 µg/mL | < 1% | 2 µg/mL (≈ 3.79 µM) | 26 nM | 0.5 µg/mL (≈ 0.948 µM) | 0.5 µg/mL (≈ 0.948 µM) | 3 nM | 0.25 µg/mL (≈ 0.474 µM) | ≤ 0.06 µg/mL | 8 µg/mL (≈ 15.2 µM) | 1 µg/mL (≈ 1.9 µM) | ≤ 0.06 µg/mL | 0.125 µg/mL (≈ 0.237 µM) | 4 µg/mL (≈ 7.58 µM) | 16 µg/mL (≈ 30.3 µM) | 0.125 µg/mL (≈ 0.237 µM) | Stability [13]: Unstable; Stability [15]: Unstable; Stability [16]: Unstable; IC50 [17]: > 20 µM; IC20 (hERG (KCNH2) [18]): > 10 µM; inhibition at 1 µM (hERG (KCNH2) [19]): < 1%; remaining at 5 h [20]: 99%; remaining at 5 h [24]: 76%
2 | C[C@@H](N)COc1cc(F)c2c(c1)CC(CN1CCC3(CC1)CN(c1cnc4c(n1)NC(=O)CO4)C(=O)O3)C2 (stereo partly drawn) | 0.5 µg/mL (≈ 0.95 µM) | 0.5 µg/mL (≈ 0.95 µM) | 1 µg/mL (≈ 1.9 µM) | ≤ 0.06 µg/mL | ≤ 0.06 µg/mL | 12% | 0.5 µg/mL (≈ 0.95 µM) | 24 nM | 0.125 µg/mL (≈ 0.237 µM) | ≤ 0.06 µg/mL | 16 nM | ≤ 0.06 µg/mL | ≤ 0.06 µg/mL | 0.25 µg/mL (≈ 0.475 µM) | ≤ 0.06 µg/mL | ≤ 0.06 µg/mL | ≤ 0.06 µg/mL | 1 µg/mL (≈ 1.9 µM) | 0.5 µg/mL (≈ 0.95 µM) | 0.125 µg/mL (≈ 0.237 µM) | IC50 [17]: > 20 µM; IC20 (hERG (KCNH2) [18]): > 10 µM; inhibition at 1 µM (hERG (KCNH2) [19]): 6.7%
3 | CC(N)COc1cc(F)c2c(c1)CC(CCOCC1CN(c3cnc4c(n3)NC(=O)CO4)C(=O)O1)C2 (stereo not drawn) | 32 µg/mL (≈ 63.8 µM) | 64 µg/mL (≈ 128 µM) | 64 µg/mL (≈ 128 µM) | 8 µg/mL (≈ 16 µM) | ≤ 0.06 µg/mL | – | 64 µg/mL (≈ 128 µM) | 170 nM | 8 µg/mL (≈ 16 µM) | 0.25 µg/mL (≈ 0.498 µM) | 27 nM | 4 µg/mL (≈ 7.98 µM) | 0.125 µg/mL (≈ 0.249 µM) | 8 µg/mL (≈ 16 µM) | 1 µg/mL (≈ 1.99 µM) | 4 µg/mL (≈ 7.98 µM) | 8 µg/mL (≈ 16 µM) | 64 µg/mL (≈ 128 µM) | 8 µg/mL (≈ 16 µM) | 16 µg/mL (≈ 31.9 µM) | logD [28]: 0.22
4 | N#Cc1cc(OCC2CNC2)cc2c1CC(CNCCC1CN(c3ccc4c(n3)NC(=O)CO4)C(=O)O1)C2 (stereo not drawn) | 4 µg/mL (≈ 7.71 µM) | 4 µg/mL (≈ 7.71 µM) | 32 µg/mL (≈ 61.7 µM) | 2 µg/mL (≈ 3.86 µM) | ≤ 0.06 µg/mL | < 1% | 16 µg/mL (≈ 30.9 µM) | 38 nM | 0.5 µg/mL (≈ 0.964 µM) | 0.5 µg/mL (≈ 0.964 µM) | 19 nM | 8 µg/mL (≈ 15.4 µM) | 0.125 µg/mL (≈ 0.241 µM) | 32 µg/mL (≈ 61.7 µM) | 1 µg/mL (≈ 1.93 µM) | 1 µg/mL (≈ 1.93 µM) | 2 µg/mL (≈ 3.86 µM) | 64 µg/mL (≈ 123 µM) | 16 µg/mL (≈ 30.9 µM) | 1 µg/mL (≈ 1.93 µM) | IC50 [17]: > 20 µM; IC20 (hERG (KCNH2) [18]): > 10 µM; inhibition at 1 µM (hERG (KCNH2) [19]): < 1%
5 | O=C(CN1CCC1)Nc1cc(F)c2c(c1)CC(CNCCC1CN(c3cnc4c(n3)NC(=O)CO4)C(=O)O1)C2 (stereo not drawn) | 1 µg/mL (≈ 1.85 µM) | 1 µg/mL (≈ 1.85 µM) | 1 µg/mL (≈ 1.85 µM) | 0.125 µg/mL (≈ 0.232 µM) | ≤ 0.06 µg/mL | < 1% | 1 µg/mL (≈ 1.85 µM) | 14 nM | 0.25 µg/mL (≈ 0.463 µM) | 1 µg/mL (≈ 1.85 µM) | 6 nM | 0.125 µg/mL (≈ 0.232 µM) | ≤ 0.06 µg/mL | 8 µg/mL (≈ 14.8 µM) | 2 µg/mL (≈ 3.71 µM) | ≤ 0.06 µg/mL | 0.125 µg/mL (≈ 0.232 µM) | 4 µg/mL (≈ 7.41 µM) | 8 µg/mL (≈ 14.8 µM) | 0.125 µg/mL (≈ 0.232 µM) | remaining at 5 h [29]: 10%; IC50 [17]: > 20 µM; IC20 (hERG (KCNH2) [18]): > 10 µM; inhibition at 1 µM (hERG (KCNH2) [19]): < 1%
